Experimental data taken from patent US12570641B2, “Solid forms of a CDK4 inhibitor” (Pfizer Inc., priority 2020, dated 2026).

Assay: Solid-state photostability (2x ICH light exposure)
Assay type: physicochemical
Protocol: Solid-state photostability of PF-07220060 monohydrate (Form 2) was evaluated after light exposure equivalent to 2× International Conference on Harmonisation (ICH) guidelines.

[1] = UV/Fluor, 2x ICH light exposure

CC(C)n1c(C(C)(C)O)nc2c(F)cc(-c3nc(N[C@@H]4CCOC[C@H]4O)ncc3Cl)cc21 [Form 2, 1,5-anhydro-3-({5-chloro-4-[4-fluoro-2-(2-hydroxypropan-2-yl)-1-(propan-2-yl)-1H-benzimidazol-6-yl]pyrimidin-2-yl}amino)-2,3-dideoxy-D-threo-pentitol monohydrate]
solid form change by PXRD (2×CH condition): no form change | change in appearance compared to the dark control sample (2×CH photostability sample): No significant change in appearance | growth of individual impurities (2×CH photostability samples): ≤ 0.2% | total impurities (2×CH photostability samples): ≤ 2.0% | % impurity RRT 0.74 (Dark control (wrapped in foil)): NMT = 0.05% | % impurity RRT 0.87 (Dark control (wrapped in foil)): 0.06% | % impurity RRT 1.02 (Dark control (wrapped in foil)): NMT = 0.05% | % impurity RRT 1.33 (Dark control (wrapped in foil)): 0.08% | % impurity RRT 0.74 [1]: 0.11% | % impurity RRT 0.87 [1]: 0.06% | % impurity RRT 1.02 [1]: 0.07% | % impurity RRT 1.33 [1]: 0.07%
